Here are results for eight compounds from patent publication US20250289787A1, “HERBICIDAL 2-OXO-NICOTINIC ACID DERIVATIVES” (SYNGENTA CROP PROTECTION AG, priority 2022, published 2025).

Holding throughout (assay type): in vivo
Holding throughout (parameters): key: 5=81-100%; 4=61-80%; 3=41-60%; 2=21-40%; 1=1-20%; 0=no damage to the plant; -=not tested

Assay [1] relates to Amaranthus palmeri (AMAPA). Kind of assay: Pre-emergence test, herbicidal damage. The following applies: 1000 g/ha unless otherwise stated, evaluated after 13 days, five-point scale.
In assay [2] the test system is Amaranthus retoflexus (AMARE). Kind of assay: Pre-emergence test, herbicidal damage. The following applies: 1000 g/ha unless otherwise stated, evaluated after 13 days, five-point scale.
Assay [3] deals with Echinochloa crus-galli (ECHCG). The experiment in a line: Pre-emergence test, herbicidal damage. The following applies: 1000 g/ha unless otherwise stated, evaluated after 13 days, five-point scale.
Assay [4] relates to Zea mays (ZEAMX). The experiment in a line: Pre-emergence test, herbicidal damage. To be noted: 1000 g/ha unless otherwise stated, evaluated after 13 days, five-point scale.
Assay [5] deals with Ipomoea hederacea (IPOHE). Kind of assay: Pre-emergence test, herbicidal damage. The following applies: 1000 g/ha unless otherwise stated, evaluated after 13 days, five-point scale.
The subject of assay [6] is Setaria faberi (SETFA). Kind of assay: Pre-emergence test, herbicidal damage. The following applies: 1000 g/ha unless otherwise stated, evaluated after 13 days, five-point scale.
Assay [7] concerns Amaranthus palmeri (AMAPA). The experiment in a line: Post-emergence test, herbicidal damage. The following applies: sprayed after 8 days cultivation, 1000 g/ha unless otherwise stated, evaluated after 13 days, five-point scale. On the procedure:
(§1) Seeds of a variety of test species are sown in standard soil in pots Amaranthus palmeri (AMAPA), (Amaranthus retoflexus (AMARE), Echinochloa crus-galli (ECHCG), Zea mays (ZEAMX), Ipomoea 5 hederacea (IPOHE), and Setaria faberi (SETFA). After 8 days cultivation under controlled conditions in a glasshouse (at 24° C./16° C., day/night; 14 hours light; 65% humidity), the plants are sprayed with an aqueous spray solution derived from the formulation of the technical active ingredient in acetone/water (50:50) solution containing 0.5% Tween 20 (polyoxyethelyene sorbitan monolaurate, CAS RN 9005-64-5). Compounds are applied at 1000 g/ha unless otherwise stated. The test plants are then grown in a glasshouse under controlled conditions in a glasshouse (at 24° C./16° C., day/night; 14 hours light; 65% humidity) and watered twice daily. After 13 days the test is evaluated for the percentage damage caused to the plant. The biological activities are shown in the following table on a five-point scale (5=81-100%; 4=61-80%; 3=41-60%; 2=21-40%; 1=1-20%; 0=no damage to the plant; -=not tested).

Assay [8] concerns Amaranthus retoflexus (AMARE). Kind of assay: Post-emergence test, herbicidal damage. To be noted: sprayed after 8 days cultivation, 1000 g/ha unless otherwise stated, evaluated after 13 days, five-point scale. The method, then:
as §1

The subject of assay [9] is Echinochloa crus-galli (ECHCG). Kind of assay: Post-emergence test, herbicidal damage. To be noted: sprayed after 8 days cultivation, 1000 g/ha unless otherwise stated, evaluated after 13 days, five-point scale. The method, then: as §1
For assay [10], the system named is Ipomoea hederacea (IPOHE). The experiment in a line: Post-emergence test, herbicidal damage. To be noted: sprayed after 8 days cultivation, 1000 g/ha unless otherwise stated, evaluated after 13 days, five-point scale. The method, then: as §1
The test system of assay [11] is Setaria faberi (SETFA). Kind of assay: Post-emergence test, herbicidal damage. To be noted: sprayed after 8 days cultivation, 1000 g/ha unless otherwise stated, evaluated after 13 days, five-point scale. The method, then:
as §1

In assay [12] the test system is Zea mays (ZEAMX). The experiment in a line: Post-emergence test, herbicidal damage. The following applies: sprayed after 8 days cultivation, 1000 g/ha unless otherwise stated, evaluated after 13 days, five-point scale. On the procedure:
as §1

The structures appear in SMILES notation.

Regarding `Cc1[nH]c(=O)c(C(=O)O)c(-c2ccc(Cl)c(Cl)c2)c1C` [Compound 9, 4-(3,4-dichlorophenyl)-5,6-dimethyl-2-oxo-1H-pyridine-3-carboxylic acid], the “percentage damage caused to the plant, AMAPA” value in [1] is 0; in assay [7], 1 (1=1-20%). Besides, the “percentage damage caused to the plant, AMARE” value in assay [2] is recorded as 0; in assay [8] it was 1 (1=1-20%). In addition, the “percentage damage caused to the plant, ECHCG” value in assay [3] and in [9] was 0 in each case. Moreover, the “percentage damage caused to the plant, ZEAMX” value in assay [4] and in assay [12] was 0 throughout. The “percentage damage caused to the plant, IPOHE” value in assay [5] is 0; in assay [10], 1 (1=1-20%). The “percentage damage caused to the plant, SEFTA” value in assay [6] and in assay [11] was 0 throughout.
Regarding `Cc1cc(-c2ccc(Cl)c(Cl)c2)c(C(=O)O)c(=O)[nH]1` [Compound 7, 4-(3,4-dichlorophenyl)-6-methyl-2-oxo-1H-pyridine-3-carboxylic acid], the “percentage damage caused to the plant, AMAPA” value in [1] and in assay [7] was 0 in each case. The “percentage damage caused to the plant, AMARE” value in assay [2] and in assay [8] was 0 in each case. In addition, the “percentage damage caused to the plant, ECHCG” value in assay [3] and in assay [9] was 0 each time. Further, the “percentage damage caused to the plant, ZEAMX” value in assay [4] and in assay [12] was 0 throughout. Further, the “percentage damage caused to the plant, IPOHE” value in [5] and in [10] was 0 throughout. The “percentage damage caused to the plant, SEFTA” value in assay [6] and in assay [11] was 0 in each case.
For `C=Cc1c(C)[nH]c(=O)c(C(=O)O)c1-c1ccc(Cl)c(Cl)c1` [Compound 8, 4-(3,4-dichlorophenyl)-6-methyl-2-oxo-5-vinyl-1H-pyridine-3-carboxylic acid], the “percentage damage caused to the plant, AMAPA” value in [1] and in [7] was 1 (1=1-20%) throughout. The “percentage damage caused to the plant, AMARE” value is listed as 0 in [2] and 1 (1=1-20%) in assay [8]. Also, the “percentage damage caused to the plant, ECHCG” value in assay [3] was 0; in assay [9], 1 (1=1-20%). For the same compound, the results for the “percentage damage caused to the plant, ZEAMX” value in assay [4] and in assay [12] were 0 and 1 (1=1-20%), respectively. Further, the “percentage damage caused to the plant, IPOHE” value in assay [5] is listed as 0; in assay [10], 1 (1=1-20%). For the same compound, the “percentage damage caused to the plant, SEFTA” value in assay [6] was 0; in assay [11], 1 (1=1-20%).
`Cc1c(Cl)c(-c2ccc(Cl)c(Cl)c2)c(C(=O)O)c(=O)n1C` [Compound 4, 5-chloro-4-(3,4-dichlorophenyl)-1,6-dimethyl-2-oxo-pyridine-3-carboxylic acid]: the “percentage damage caused to the plant, AMAPA” value is 1 (1=1-20%) in [1] and 2 (2=21-40%) in assay [7]. In addition, the “percentage damage caused to the plant, AMARE” value in assay [2] and in [8] was 1 (1=1-20%) throughout. For the same compound, the “percentage damage caused to the plant, ECHCG” value in [3] and in assay [9] was 0 in each case. The “percentage damage caused to the plant, ZEAMX” value in assay [4] and in [12] was 0 in each case. The “percentage damage caused to the plant, IPOHE” value in assay [5] and in assay [10] was 0 throughout. For the same compound, the “percentage damage caused to the plant, SEFTA” value in [6] and in [11] was 0 throughout.
In the case of `C=Cc1c(-c2ccc(Cl)c(Cl)c2)c(C(=O)O)c(=O)n(-c2ccc(F)cc2F)c1C` [Compound 38, 4-(3,4-dichlorophenyl)-1-(2,4-difluorophenyl)-6-methyl-2-oxo-5-vinyl-pyridine-3-carboxylic acid], the “percentage damage caused to the plant, AMAPA” value in [1] and in [7] was 1 (1=1-20%) each time. The “percentage damage caused to the plant, AMARE” value in [2] and in assay [8] was 1 (1=1-20%) throughout. For the same compound, the “percentage damage caused to the plant, ECHCG” value is 2 (2=21-40%) in [3] and 0 in [9]. Further, the “percentage damage caused to the plant, ZEAMX” value in assay [4] and in assay [12] was 0 in each case. In addition, the “percentage damage caused to the plant, IPOHE” value was 0 in assay [5] and 2 (2=21-40%) in [10]. Besides, the “percentage damage caused to the plant, SEFTA” value in assay [6] and in assay [11] was 0 each time.
Regarding `Cc1[nH]c(=O)c(C(=O)O)c(-c2ccc(Cl)c(Cl)c2)c1Cl` [Compound 2, 5-chloro-4-(3,4-dichlorophenyl)-6-methyl-2-oxo-1H-pyridine-3-carboxylic acid], the “percentage damage caused to the plant, AMAPA” value in [1] and in assay [7] was 0 in each case. Further, the “percentage damage caused to the plant, AMARE” value in assay [2] and in [8] was 0 throughout. The “percentage damage caused to the plant, ECHCG” value in assay [3] and in assay [9] was 0 each time. Besides, the “percentage damage caused to the plant, ZEAMX” value in [4] and in assay [12] was 0 throughout. For the same compound, the “percentage damage caused to the plant, IPOHE” value in assay [5] and in assay [10] was 0 each time. Further, the “percentage damage caused to the plant, SEFTA” value in [6] and in assay [11] was 0 in each case.
Regarding `CCc1c(-c2ccc(Cl)c(Cl)c2)c(C(=O)O)c(=O)n(-c2ccc(Cl)cc2F)c1C` [Compound 35, 1-(4-chloro-2-fluoro-phenyl)-4-(3,4-dichlorophenyl)-5-ethyl-6-methyl-2-oxo-pyridine-3-carboxylic acid], the “percentage damage caused to the plant, AMAPA” value in assay [1] and in assay [7] was 4 (4=61-80%) throughout. In addition, the “percentage damage caused to the plant, AMARE” value in assay [2] and in [8] was 4 (4=61-80%) throughout. In addition, the “percentage damage caused to the plant, ECHCG” value in assay [3] is on record as 1 (1=1-20%); in [9], 0. In addition, the “percentage damage caused to the plant, ZEAMX” value in [4] and in [12] was 0 each time. Moreover, the entries for the “percentage damage caused to the plant, IPOHE” value in [5] and in assay [10] were 0 and 1 (1=1-20%), respectively. The “percentage damage caused to the plant, SEFTA” value in assay [6] and in assay [11] was 0 in each case.
In the case of `CCc1c(C)[nH]c(=O)c(C(=O)O)c1-c1ccc(Cl)c(Cl)c1` [Compound 10, 4-(3,4-dichlorophenyl)-5-ethyl-6-methyl-2-oxo-1H-pyridine-3-carboxylic acid], the “percentage damage caused to the plant, AMAPA” value in assay [1] and in [7] was 0 each time. The “percentage damage caused to the plant, AMARE” value in assay [2] and in assay [8] was 0 throughout. Also, the “percentage damage caused to the plant, ECHCG” value in assay [3] and in [9] was 0 each time. The “percentage damage caused to the plant, ZEAMX” value in assay [4] and in [12] was 0 in each case. Also, the “percentage damage caused to the plant, IPOHE” value in assay [5] and in assay [10] was 0 in each case. Further, the “percentage damage caused to the plant, SEFTA” value in assay [6] and in assay [11] was 0 each time.
